In ChEMBL document CHEMBL1137532, “Mutation and inhibition studies of mevalonate 5-diphosphate decarboxylase” (Bioorg Med Chem Lett, 2007):
Substitutions are numbered along the chain they refer to. Numbers in names are those of the source.

How the values were obtained:
[1] = Inhibition of rat MDD
[2] = species on record: Rattus norvegicus; assay: Activity of wild type MDD in rat liver
[3] = substrate: C[C@@](O)(CCOP(=O)(O)OP(=O)(O)O)CC(=O)O; assay: (§1) Activity of MDD K27A mutant; conditions: Rattus norvegicus
[4] = substrate: Nc1ncnc2c1ncn2[C@@H]1O[C@H](COP(=O)(O)OP(=O)(O)OP(=O)(O)O)[C@@H](O)[C@H]1O; assay: as §1; conditions: Rattus norvegicus
[5] = substrate: C[C@@](O)(CCOP(=O)(O)OP(=O)(O)O)CC(=O)O; assay: (§2) Activity of MDD R154A mutant; conditions: Rattus norvegicus
[6] = substrate: Nc1ncnc2c1ncn2[C@@H]1O[C@H](COP(=O)(O)OP(=O)(O)OP(=O)(O)O)[C@@H](O)[C@H]1O; assay: as §2; conditions: Rattus norvegicus

For `CCC(O)(CCOP(=O)(O)OP(=O)(O)O)C(F)C(=O)O` (stereo unspecified), which IC50 [1] is on record?
Its IC50 is 20 µM.

For `CC(O)(CCF)CCOP(=O)(O)OP(=O)(O)O` (stereo unspecified), which IC50 [1] is on record?
Its IC50 is 50 µM.

With `CC(C)(O)CCOP(=O)(O)OP(=O)(O)O` as the molecule, how does the IC50 [1] read?
The IC50 was 60 µM.

For `Nc1ncnc2c1ncn2[C@@H]1O[C@H](COP(=O)(O)OP(=O)(O)OP(=O)(O)O)[C@@H](O)[C@H]1O`, which Km [2] is on record?
The Km was 530 µM.

With `CC(O)(CCOP(=O)(O)OP(=O)(O)O)Cc1ccccc1` (stereo unspecified) as the molecule, how does the IC50 [1] read?
The IC50 was 140 µM.

Which IC50 [1] does the source give for `CCCC(C)(O)CCOP(=O)(O)OP(=O)(O)O` (stereo unspecified) here?
The IC50 was 120 µM.

Which IC50 [1] does the source give for `CC(O)(CCOP(=O)(O)OP(=O)(O)O)C(F)(F)C(=O)O` (stereo unspecified) here?
Its IC50 is 7.5 µM.

For `C[C@@](O)(CCOP(=O)(O)OP(=O)(O)O)CC(=O)O`, which Km [2] is on record?
Its Km is 36 µM.

And the Vmax [2]?
The Vmax was 6.6 µmol/min/mg.

With `CCC(C)(O)CCOP(=O)(O)OP(=O)(O)O` (stereo unspecified) as the molecule, how does the IC50 [1] read?
Its IC50 is 80 µM.

B1: Diphosphomevalonate decarboxylase (Rattus norvegicus), Q62967 K27A (protein)
chain: MASEKPQDLMVTCTAPVNIAVIKYWGARDEALILPINPSLSVTLHQDQLKTTTTAAISKDFTEDRIWLNGREEDVGQPRLQACLREIRRLARKRRSTGDGDALPLSLGYKVHVASVNNFPTAAGLASSAAGYACLAYTLARVYGVEGDLSEVARRGSGSACRSLYGGFVEWQMGEQADGKDSIARQIAPEWHWPQLRVLILVVSAEKKPTGSTVGMQTSVATSTLLKFRAESIVPERMKEMTRCIQEQDFQAFAQLTMKDSNQFHATCLDTFPPISYLNDTSRRIIQLVHRFNAHHGQTKVAYTFDAGPNAVIFTLEDTVAEFVAAVRHSFPPAANGDKFLKGLQVAPVLLSDELKTSLATEPSPGGVQYIIATQVGPGPQVLDDPHHHLLGPDGLPQRDL
What does the source list for B1?
Km [3]: 750 µM; Vmax [3]: 0.14 µmol/min/mg; Km [4]: 1870 µM

B2: Diphosphomevalonate decarboxylase (Rattus norvegicus), Q62967 R154A (protein)
chain: B1 chain with A27K, R154A
With B2 as the molecule, how does the Km [5] read?
The Km was 920 µM.

And the Vmax [5]?
Its Vmax is 0.34 µmol/min/mg.

What about the Km [6] of the same molecule?
Its Km is 1400 µM.
